Reference: US12180084B2, “Cerium (III) carbonate formulations” (THE REGENTS OF THE UNIVERSITY OF CALIFORNIA, priority 2019, dated 2024)

Assays:
[1] = CR dye photodegradation in TiO2-based sunscreen film (Neutrogena Broad Spectrum Mineral Sunscreen SPF 60+); settings: 3.0 wt. % added agent relative to sunscreen weight
Description: Films on filter paper were fabricated and photoreactor experiments were conducted exactly the same way as described in Example 7.3, using CR dye, except UV irradiation in the photoreactor was conducted for a period of 4 h. These films contained either no UV-protecting agent, 3.0 wt. % of Ce2(CO3)3·6H2O that was synthesized according to Example 3, 3.0 wt. % of commercial Ce2(CO3)3·xH2O (Acros Organics), or 3.0 wt. % of ZnO (NANOBYK-3840). […] Upon adding 3 wt. % of Ce2(CO3)3·6H2O synthesized according to Example 3 to the sunscreen formulation, a decrease in the amount of CR dye photodegradation to 15±1% is observed. […] When cerium carbonate consisting of Ce2(CO3)3·xH2O from Acros Organics is instead used in place of Ce2(CO3)3·6H2O synthesized according to Example 3, photoprotection with 24±2% CR dye photodegradation is observed. The properties of Ce2(CO3)3·xH2O from Acros Organics have been ascribed in Example 4, and these aspects are borne out in conjunction with sunscreen-based formulations here as well. When instead of cerium carbonate ZnO (NANOBYK-3840) is used as a UV-protecting agent, less effect on CR dye photodegradation is observed. This is a similar outcome to observations with MB dye and ZnO-based sunscreen formulation in Example 7.2.
The amount of Ce2(CO3)3·6H2O synthesized according to Example 3 that was incorporated into the TiO2-based sunscreen was increased to 5.0 wt. %, and results are shown in FIGS. 23A-23B and are summarized in Table 4. […] There is a slight diminishing return for adding Ce2(CO3)3·6H2O both here and in Example 7.2, but the effect of increasing Ce2(CO3)3·6H2O on organic-molecule photoprotection is much more pronounced than in the case of ZnO.

[2] = MB organic dye photodegradation in aqueous slurry with P25 photocatalyst under 254 nm light; settings: 1 mg Ce2(CO3)3·4H2O versus 11.4 mg Ce (III)-R706, 2 mg P25
[3] = MB dye photodecomposition under 254 nm light in the absence of any added photocatalyst; settings: 1 mg in 10 mL 10^−5 M MB, up to 60 min, no photocatalyst
Source text: Though photocatalysis increases photodecomposition of organics, thought to be mediated by generation of reactive oxygen species (ROS), organic molecules have their own absorptivity of light due to presence of light-absorbing chemical substituents. This absorptivity of light can itself produce radicals in water, which even in the absence of a photocatalyst per se, can ultimately lead to photodegradation/decomposition of organics. Here it was investigated whether it was possible to reduce the inherent photodecomposition/degradation of methylene blue (MB) dye under exposure to 254 nm light, by using cerium (III) carbonate, in the absence of any added photocatalyst.
Two separate sets of photoreactions were performed: (1) 10 mL aqueous solution of 10^−5 M MB dye was exposed to 254 nm light under a photoreactor setup for a duration of up to 60 min and (2) 1 mg Ce2(CO3)3·4H2O that was synthesized according to the procedure described in Example 3 was dispersed in a 10 mL aqueous solution of 10^−5 M MB dye, and the resulting slurry was exposed to 254 nm light under photoreactor setup for a duration of up to 60 min.

[4] = CR organic dye photodegradation in dried acrylic paint film under sunlight; settings: 6 h sunlight
Source text: To investigate the effectiveness of this approach in a dry (solid) composition, Congo Red (CR) organic dye at a concentration of 3×10^−5 M was incorporated into a waterborne acrylic paint formulation dispersion, together with P25 photocatalyst (10 wt % relative to the Ti-Pure R706 pigment weight used in the dispersion).
A composition was made with 16% Ce (III)-R706 pigment volume concentration comprising CR organic dye (the pigment volume concentration is defined as the volume percentage of solid particles in the system after formation of the composition (e.g., excluding water). This was performed by first preparing a 75 wt % aqueous slurry of Ce (III)-R706 pigment by high shear mixing in presence of 0.3 wt % TAMOL™ 1124 with respect to the weight of pigment. 4.64 g of this slurry was incorporated in 12.78 g of acrylic-based BP 8164 polymer (obtained from the Dow Chemical Company), to which was added 1.966 mL of 3.5×10^−4 M CR aqueous dye solution, and 10 wt % P25 photocatalyst (with respect to pigment weight). The resulting dispersion was mixed under high-shear conditions in a high speed mixer.
Thereafter, 0.6 g of 2020E thickener (a non-ionic urethane rheology modifier) was added into the slurry, and the resulting dispersion was mixed under high-shear conditions in a high-speed mixer, to obtain the final formulation dispersion. The solid (dried) film coating was prepared with a 3 mil (1 mil=0.001 inch) bar applicator on a polyacrylic substrate and dried for 48 h prior to conducting the photocatalysis experiments. During photocatalysis, all the coatings were exposed to sunlight (under similar conditions) for an exposure period of 6 hours. Prior to sunlight exposure, 100 mg of the coating was scraped off with a sharp blade, and was extracted in 1.5 mL of absolute ethanol for UV-visible spectroscopy analysis, to obtain a datum of CR organic dye concentration in the film prior to photocatalysis. Similarly, another 100 mg portion of coating scraped off and extracted after 6 hours of sunlight exposure, and the percentage of dye degradation was calculated by UV-visible spectrophotometry.
To investigate the photopassivation effectiveness of a separate cerium (III) compound in a dry (solid) paint film coating, insoluble cerium (III) carbonate particles and CR organic dye at a concentration of 3×10^−5 M were incorporated into a waterborne acrylic paint formulation dispersion, using either Ti-Pure-R706 or the same rutile TiO2 used in Example 1 as the pigment, and assessed the rate of dye photodegradation relative to an identical dispersion, in the absence of cerium (III) carbonate particles.
The composition of this dispersion, and the procedure for synthesizing the dried coating film is described in the paragraph below. […]

Row | % of CR dye photodegradation after 4 h of UV irradiation in photoreactor ([1]; listed as Ce2(CO3)3·xH2O from Acros Organics) [%] | % of CR dye photodegradation after 4 h of UV irradiation in photoreactor ([1]; listed as Commercial Ce2(CO3)3•xH2O (Acros Organics)) [%] | photodegradation of CR organic dye in dried paint film ([4]; Ti-Pure R706 pigment, 2 wt. % cerium (III) carbonate relative to pigment) [%] | photodegradation of CR organic dye in dried paint film ([4]; Ti-Pure R706 pigment, 5 wt. % cerium (III) carbonate relative to pigment) [%] | photodegradation of CR organic dye in dried paint film ([4]; rutile TiO2 pigment, 2 wt % cerium (III) carbonate relative to pigment) [%] | Compound | fold lower rate constant than with the same amount of cerium as Ce (III)-R706 [2] [fold] | fold decreased rate of MB dye photodecomposition compared to control MB solution [3] [fold] | photodegradation of CR organic dye in dried paint film ([4]; rutile TiO2 pigment, 5 wt % cerium (III) carbonate relative to pigment)
1 | 24±2 | 24 ± 2 |  |  |  | Ce2(CO3)3·xH2O [Ce2(CO3)3·xH2O (ACROS Organics)] |  |  | 
2 |  |  | 29 | 12 | 20 | O=C([O-])[O-].O=C([O-])[O-].O=C([O-])[O-].[Ce+3].[Ce+3] [Ce2(CO3)3·4H2O] | 1.5 | ~40 | did not show any detectable CR dye photodegradation
